Experiments:
[1] = system: 4-analyte M-DP panel (CRP, CXCL10, CXCL13, SAA); assay: Pharmacodynamic M-DP score, 4-analyte panel CRP, CXCL10, CXCL13, SAA (SOMAscan), clinical studies in RA; assay type: in vivo, human; conditions: 4-analyte
From the text: (§1) Serum samples and data from eight interventional clinical studies with seven different active treatments for RA or placebo treatment were obtained and analyzed: sirukumab (anti-IL-6) and placebo treatments in SIRROUND-M (NCT01689532; Takeuchi T, et al. Arthritis Res Ther. 2018 Mar. 7; 20(1): 42), SIRROUND-D (NCT01604343; Takeuchi T, et al. Ann Rheum Dis. 2017 Dec.; 76(12): 2001-2008), and SIRROUND-T (NCT01606761; Aletaha D, et al. Lancet. 2017 Mar. 25; 389(10075): 1206-1217); sirukumab and adalimumab (anti-TNF-alpha) treatments in SIRROUND-H (NCT02019472; Taylor PC, et al. Ann Rheum Dis. 2018 May; 77(5): 658-666); golimumab (anti-TNF-alpha) treatment in GO-FURTHER (NCT00973479; Weinblatt ME, et al. Ann Rheum Dis. 2013 March; 72(3): 381-9); guselkumab (anti-IL-23p19), ustekinumab (anti-IL-12/IL-23p40), and placebo treatments in CNTO1275ARA2001 (NCT01645280; Cox JD, et al. […]); JNJ-40346527 (colony-stimulating factor-1 inhibitor) and placebo treatments in 40346527ARA2001 (NCT01597739; Genovese MC, et al. J Rheumatol. 2015 October; 42(10): 1752-60). Plasma samples were obtained from the RA-MAP TACERA study (Cope AP, et al. Nat Rev Rheumatol. 2018 January; 14(1): 53-60) before (baseline) and 6-months after initiation of conventional synthetic disease-modifying anti-rheumatic drugs (csDMARDs). Details of treatment dose groups, concomitant methotrexate use, and previous experience with csDMARDs and biologics are reported in Table 1. The studies were conducted in accordance with the Declaration of Helsinki. The study protocols were reviewed and approved by an independent ethics committee or institutional review board for each study center. Written informed consent was obtained from all patients before study entry. Additional study details and patient characteristics are available in the referenced publications for each study. For SIRROUND-D and SIRROUND-T studies, sets of serum samples from demographically-matched healthy controls were obtained from commercial sources (BioIVT, Westbury, N.Y.).
(§2) Serum samples from baseline (week 0) and the time points indicated in Table 1 were provided for quantification of 1189 serum analytes using the SomaScan v3.1 platform (SomaLogic, Boulder, Colo.; www.somalogic.com), with the exception of RA-MAP TACERA, for which plasma samples were analyzed for 1301 analytes using the SomaScan v3.2 platform. For some studies, a redacted dataset reporting data for a subset of the analytes was obtained. Relative fluorescence unit (RFU) data were sequentially normalized for hybridization controls (internal standards per samples), median signal across all samples (assumes same total protein concentration across sample set), and calibration controls (common sample standards across analysis plates). Samples failed quality control standards defined by Somalogic were excluded from analyses. The normalized RFU values were log2-transformed for subsequent analyses.
(§3) Changes in analyte expression levels were calculated for individual samples as the log2 transform of the ratio of the analyte level at the indicated time point (visit level) over the analyte level at baseline (baseline level) for a given subject, i.e., log 2(visit level/baseline level). Changes in RA disease-associated analytes per sample were summarized using a pharmacodynamic (PD) molecular disease profile (M-DP) score, defined as the median value of the log 2(visit level/baseline level) values for analytes in the defined M-DP analyte set. […] PD M-DP scores in the log 2(visit level/baseline level) scale can be transformed to percent change from baseline, using the transformation: (2^M-DP score−1)×100%.
In selecting the best minimal set of analytes that performs similarly to the full 14-analyte set, analyte sets that results in significant associations between DAS28-CRP EULAR good vs. no response with p<0.05 for each study were prioritized (Table 4). […]

[2] = system: 14-analyte M-DP panel; assay: Pharmacodynamic M-DP score, 14-analyte panel (SomaLogic SOMAscan), clinical studies in RA; assay type: in vivo, human
From the text: as §1, §2, §3
Statistical analyses were performed on log2-transformed data, for either normalized Relative fluorescence unit (RFU) datasets or within-subject fold/baseline datasets. Significance of differences between groups was evaluated using General Linear Models, with t-tests when comparing two groups. […]

[3] = system: RA patients; conditions: RA patients; cited from earlier work
[4] = SIRROUND-H, score at week 4, sirukumab SC 50 mg q4w or adalimumab SC 40 mg q2w
[5] = SIRROUND-H, score at week 4, sirukumab SC 50 mg q4w or adalimumab SC 40 mg q2w, response at week 24
[6] = 40346527ARA2001, score at week 4, oral 100 mg BID
[7] = 40346527ARA2001, score at week 4, oral 100 mg BID, response at week 12
[8] = 40346527ARA2001, score at week 12, oral 100 mg BID
[9] = 40346527ARA2001, score at week 12, oral 100 mg BID, response at week 12

Molecule: adalimumab [reference compound]
- M-DP score mean ± SD, All treated [1, 4]: −0.43 ± 0.53 log2 (fold/baseline)
- M-DP score mean difference ± SD, Good vs. No [1, 5]: −0.29 ± 0.45 (0.0217) log2 (fold/baseline)
- M-DP score mean ± SD, DAS28-CRP response group Good [1, 5]: −0.58 ± 0.50 log2 (fold/baseline)
- M-DP score mean ± SD, DAS28-CRP response group Moderate [1, 5]: −0.39 ± 0.59 log2 (fold/baseline)
- M-DP score mean ± SD, DAS28-CRP response group No [1, 5]: −0.29 ± 0.37 log2 (fold/baseline)
- M-DP score decrease ([1]; adalimumab, week 4): 26%
- M-DP score effect size (decrease below zero) ([1]; week 4): 0.8 standard deviations
- M-DP score decrease ([2]; SIRROUND-H, 4-week treatment, adalimumab SC 40 mg q2w): 12%
- M-DP score mean ± SD, All treated [2, 4]: −0.18 ± 0.33 log2 (fold/baseline)
- M-DP score mean difference ± SD, Good vs. No [2, 5]: −0.06 ± 0.33 log2 (fold/baseline)
- M-DP score mean ± SD, DAS28-CRP response group Good [2, 5]: −0.22 ± 0.37 log2 (fold/baseline)
- M-DP score mean ± SD, DAS28-CRP response group Moderate [2, 5]: −0.17 ± 0.33 log2 (fold/baseline)
- M-DP score mean ± SD, DAS28-CRP response group No [2, 5]: −0.14 ± 0.26 [23] * log2 (fold/baseline)

Molecule: CC1(C)CC=C(c2nc(C3CC(C)(C)OC(C)(C)C3)ccc2NC(=O)c2nc(C#N)c[nH]2)CC1 [JNJ-40346527, reference compound]
- clinical efficacy in the underlying clinical studies [3]: not clinically efficacious
- M-DP score mean ± SD, All treated [1, 6]: −0.03 ± 0.49 log2 (fold/baseline)
- M-DP score mean difference ± SD, Good vs. No [1, 7]: 0.34 ± 0.52 (0.1581) log2 (fold/baseline)
- M-DP score mean ± SD, DAS28-CRP response group Good [1, 7]: −0.29 ± 0.42 log2 (fold/baseline)
- M-DP score mean ± SD, DAS28-CRP response group Moderate [1, 7]: −0.05 ± 0.48 log2 (fold/baseline)
- M-DP score mean ± SD, DAS28-CRP response group No [1, 7]: −0.09 ± 0.54 log2 (fold/baseline)
- M-DP score mean ± SD, All treated [1, 8]: −0.01 ± 0.56 log2 (fold/baseline)
- M-DP score mean difference ± SD, Good vs. No [1, 9]: −0.68 ± 0.52 (0.0079) log2 (fold/baseline)
- M-DP score mean ± SD, DAS28-CRP response group Good [1, 9]: −0.50 ± 0.61 log2 (fold/baseline)
- M-DP score mean ± SD, DAS28-CRP response group Moderate [1, 9]: −0.07 ± 0.55 log2 (fold/baseline)
- M-DP score mean ± SD, DAS28-CRP response group No [1, 9]: 0.18 ± 0.50 log2 (fold/baseline)
- M-DP score mean ± SD, All treated [2, 6]: −0.08 ± 0.27 log2 (fold/baseline)
- M-DP score mean difference ± SD, Good vs. No [2, 7]: 0.08 ± 0.52 log2 (fold/baseline)
- M-DP score mean ± SD, DAS28-CRP response group Good [2, 7]: 0.29 ± 0.42 log2 (fold/baseline)
- M-DP score mean ± SD, DAS28-CRP response group Moderate [2, 7]: −0.05 ± 0.48 log2 (fold/baseline)
- M-DP score mean ± SD, DAS28-CRP response group No [2, 7]: −0.09 ± 0.54 [23] log2 (fold/baseline)
- M-DP score mean ± SD, All treated [2, 8]: −0.13 ± 0.33 log2 (fold/baseline)
- M-DP score mean ± SD, DAS28-CRP response group Good [2, 9]: −0.50 ± 0.61 log2 (fold/baseline)
- M-DP score mean ± SD, DAS28-CRP response group Moderate [2, 9]: −0.07 ± 0.55 log2 (fold/baseline)
- M-DP score mean ± SD, DAS28-CRP response group No [2, 9]: 0.18 ± 0.50 [22] log2 (fold/baseline)
- GMean M-DP scores, change ([2]; week 4 or latest time point evaluated (weeks 28, 28, and 12, respectively)): not decreased

Source: patent US20230243822A1, “MOLECULAR DISEASE PROFILE AND USE THEREOF FOR MONITORING AND TREATING RHEUMATAOID ARTHRITIS” (JANSSEN BIOTECH, INC., priority 2020, published 2023)
